Among the data in patent publication US20110218199A1, “PYRIDONEAMIDE DERIVATIVES, THEIR MANUFACTURE AND USE AS PHARMACEUTICAL AGENTS” (priority 2007, published 2011) are IC50 values, retold here.

Structures are written as SMILES.

The test has as its system HCT 116 cells. Briefly: CellTiter-Glo assay in HCT 116 cells (antiproliferative activity). To be noted: Homo sapiens, HCT-116, 120 h, CellTiter-Glo cell viability, HCT 116 human colon carcinoma, 5 days (120 h) incubation. Format: cell-based. An excerpt:
Antiproliferative Activity:
CellTiter-Glo™ Assay in HCT 116 Cells:
The CellTiter-Glo™ Luminescent Cell Viability Assay (Promega) is a homogeneous method of determining the number of viable cells in culture based on quantitation of the ATP present, which signals the presence of metabolically active cells.
HCT 116 cells (human colon carcinoma, ATCC-No. CCl-247) were cultivated in RPMI 1640 medium with GlutaMAX• I (Invitrogen, Cat-No. 61870-010), 5% Fetal Calf Serum (FCS, Sigma Cat-No. F4135 (FBS)); 100 Units/ml penicillin/100 μg/ml streptomycin (=Pen/Strep from Invitrogen Cat. No. 15140). For the assay the cells were seeded in 384 well plates, 1000 cells per well, in the same medium. The next day the test compounds were added in various concentrations ranging from 30 μM to 0.0015 μM (10 concentrations, 1:3 diluted). After 5 days the CellTiter-Glo™ assay was done according to the instructions of the manufacturer (CellTiter-Glo™ Luminescent Cell Viability Assay, from Promega). In brief: the cell-plate was equilibrated to room temperature for approximately 30 minutes and than the CellTiter-Glo™ reagent was added. The contents were carefully mixed for 15 minutes to induce cell lysis. After 45 minutes the luminescent signal was measured in Victor 2, (scanning multiwell spectrophotometer, Wallac).
1st. Day: • Medium: RPMI 1640 with GlutaMAX™ I (Invitrogen, Cat-Nr. 61870), 5% FCS (Sigma Cat.-No. F4135), Pen/Strep (Invitrogen, Cat No. 15140). • HCT116 (ATCC-No. CC1-247): 1000 cells in 60 μl per well of 384 well plate (Greiner 781098, μClear-plate white) • After seeding incubate plates 24 h at 37° C., 5% CO2
2nd. Day: Induction (Treatment with Compounds, 10 Concentrations):
In order to achieve a final concentration of 30 μM as highest concentration 3.5 μl of 10 mM compound stock solution were added directly to 163 μl media. Then step e) of the dilution procedure described below, was followed.
In order to achieve the second highest to the lowest concentrations, a serial dilution with dilution steps of 1:3 was followed according to the procedure (a-e) as described here below: • a) for the second highest concentration add 10 μl of 10 mM stock solution of compound to 20 μl dimethylsulfoxide (DMSO) • b) dilute 8×1:3 (always 10 μl to 20 μl DMSO) in this DMSO dilution row (results in 9 wells with concentrations from 3333.3 μM to 0.51 μM) • c) dilute each concentration 1: 47.6 (3.5 μl compound dilution to 163 μl media) • d) add 10 μl of every concentration to 60 μl media in the cell plate resulting in final concentration of DMSO: 0.3% in every well and resulting in 10 final concentration of compounds ranging from 30 μM to 0.0015 μM. • Each compound is tested in triplicate. • Incubate 120 h (5 days) at 37° C., 5% CO2 […]
Add 30 μl CellTiter-Glo™ Reagent (prepared from CellTiter-Glo™ Buffer and CellTiter-Glo™ Substrate (lyophilized) purchased from Promega) per well, shake 15 minutes at room temperature incubate further 45 minutes at room temperature without shaking
Victor 2 scanning multiwell spectrophotometer (Wallac), Luminescence mode (0.5 sec/read, 477 nm) Determine IC50 using a non-linear curve fit (XLfit software (ID Business Solution Ltd., Guilford, Surrey, UK))
The IC50 is the midpoint of a concentration-inhibition curve. Read a low IC50 as inhibition by little substance. Regarding `CN1CCN(c2ccc(NC(=O)c3c(NCc4ccccn4)cc[nH]c3=O)cc2F)CC1` [Example 2k, 2-Oxo-4-[(pyridin-2-ylmethyl)-amino]-1,2-dihydro-pyridine-3-carboxylic acid [3-fluoro-4-(4-methyl-piperazin-1-yl)-phenyl]-amide], the IC50 was 500 to 15000 nM.
On to `O=C(Nc1cccc(CN2CCCC2)c1)c1c(NCCc2ccccc2)cc[nH]c1=O` [Example 6w, 2-Oxo-4-phenethylamino-1,2-dihydro-pyridine-3-carboxylic acid (3-pyrrolidin-1-ylmethyl-phenyl)-amide], for which the IC50 lay within 500 to 15000 nM.
Turning to `CSc1cccc(NC(=O)c2c(NCc3ccccn3)cc[nH]c2=O)c1` [Example 6s, 2-Oxo-4-[(pyridin-2-ylmethyl)-amino]-1,2-dihydro-pyridine-3-carboxylic acid (3-methylsulfanyl-phenyl)-amide], the IC50 fell in the range of 500 to 15000 nM.
Take `CN1CCN(c2ccc(NC(=O)c3c(NC[C@@H](O)c4cccc(Cl)c4)cc[nH]c3=O)cc2)CC1` [Example 2p, 4-[(S)-2-(3-Chloro-phenyl)-2-hydroxy-ethylamino]-2-oxo-1,2-dihydro-pyridine-3-carboxylic acid [4-(4-methyl-piperazin-1-yl)-phenyl]-amide]: the IC50 is 500 to 15000 nM.
Consider `CC(CNc1cc[nH]c(=O)c1C(=O)Nc1cccc(N2CCOCC2)c1)c1ccccc1` (stereo not drawn) [Example 6g, 2-Oxo-4-(2-phenyl-propylamino)-1,2-dihydro-pyridine-3-carboxylic acid (3-morpholin-4-yl-phenyl)-amide], for which the IC50 was 500 to 15000 nM.
In the case of `COc1ccccc1CCNc1cc[nH]c(=O)c1C(=O)Nc1cccc(N2CCN(C)CC2)c1` [Example 4ab, 4-[2-(2-Methoxy-phenyl)-ethylamino]-2-oxo-1,2-dihydro-pyridine-3-carboxylic acid [3-(4-methyl-piperazin-1-yl)-phenyl]-amide], the IC50 lay in the range of 500 to 15000 nM.
For `COc1ccc(NC(=O)c2c(NC[C@@H](O)c3cccc(Cl)c3)cc[nH]c2=O)cc1N1CCN(C)CC1` [Example 4i, 4-[(S)-2-(3-Chloro-phenyl)-2-hydroxy-ethylamino]-2-oxo-1,2-dihydro-pyridine-3-carboxylic acid [4-methoxy-3-(4-methyl-piperazin-1-yl)-phenyl]-amide], the IC50 lay within 500 to 15000 nM.
`CC(CNc1cc[nH]c(=O)c1C(=O)Nc1ccc(N2CCN(C)CC2)cc1)c1ccccc1` (stereo not drawn) [Example 6ae, 2-Oxo-4-(2-phenyl-propylamino)-1,2-dihydro-pyridine-3-carboxylic acid [4-(4-methyl-piperazin-1-yl)-phenyl]-amide] registered an IC50 of 500 to 15000 nM.
In turn, `O=C(Nc1ccc(N2CCOCC2)c(F)c1)c1c(NCCc2cccc(Cl)c2)cc[nH]c1=O` [Example 2a, 4-[2-(3-Chloro-phenyl)-ethylamino]-2-oxo-1,2-dihydro-pyridine-3-carboxylic acid (3-fluoro-4-morpholin-4-yl-phenyl)-amide] returned a half-maximal inhibitory concentration (IC50) of 500 to 15000 nM.
As for `COc1ccc(NC(=O)c2c(NC3CCCCC3)cc[nH]c2=O)cc1N1CCN(C)CC1` [Example 6m, 4-Cyclohexylamino-2-oxo-1,2-dihydro-pyridine-3-carboxylic acid [4-methoxy-3-(4-methyl-piperazin-1-yl)-phenyl]-amide], the figure is 500 to 15000 nM.
Turning to `CN1CCN(c2ccc(NC(=O)c3c(NCc4ccccn4)cc[nH]c3=O)cc2)CC1` [Example 2s, 2-Oxo-4-[(pyridin-2-ylmethyl)-amino]-1,2-dihydro-pyridine-3-carboxylic acid [4-(4-methyl-piperazin-1-yl)-phenyl]-amide], the IC50 lay within 500 to 15000 nM.
In the case of `Cc1cccc(CCNc2cc[nH]c(=O)c2C(=O)Nc2cccc(N3CCN(C)CC3)c2)c1` [Example 4aa, 2-Oxo-4-(2-m-tolyl-ethylamino)-1,2-dihydro-pyridine-3-carboxylic acid [3-(4-methyl-piperazin-1-yl)-phenyl]-amide], the IC50 fell in the range of 500 to 15000 nM.
In turn, `COc1ccc(NC(=O)c2c(NCCc3cccc(Cl)c3)cc[nH]c2=O)cc1N1CCN(C)CC1` [Example 6o, 4-[2-(3-Chloro-phenyl)-ethylamino]-2-oxo-1,2-dihydro-pyridine-3-carboxylic acid [4-methoxy-3-(4-methyl-piperazin-1-yl)-phenyl]-amide] registered an IC50 of 500 to 15000 nM.
As for `CN1CCN(c2ccc(NC(=O)c3c(NCCc4ccccc4)cc[nH]c3=O)cc2)CC1` [Example 6ad, 2-Oxo-4-phenethylamino-1,2-dihydro-pyridine-3-carboxylic acid [4-(4-methyl-piperazin-1-yl)-phenyl]-amide], the figure is 500 to 15000 nM.
As for `O=C(Nc1cccc(CN2CCCCC2)c1)c1c(NCCc2ccccc2)cc[nH]c1=O` [Example 6t, 2-Oxo-4-phenethylamino-1,2-dihydro-pyridine-3-carboxylic acid (3-piperidin-1-ylmethyl-phenyl)-amide], the figure is 500 to 15000 nM; as for `O=C(Nc1cccc(N2CCCCC2)c1)c1c(NCc2ccccn2)cc[nH]c1=O` [Example 2o, 2-Oxo-4-[(pyridin-2-ylmethyl)-amino]-1,2-dihydro-pyridine-3-carboxylic acid (3-piperidin-1-yl-phenyl)-amide], 500 to 15000 nM; as for `CC(=O)N1CCN(c2ccc(NC(=O)c3c(NC[C@@H](O)c4cccc(Cl)c4)cc[nH]c3=O)cc2C(F)(F)F)CC1` [Example 4d, 4-[(S)-2-(3-Chloro-phenyl)-2-hydroxy-ethylamino]-2-oxo-1,2-dihydro-pyridine-3-carboxylic acid [4-(4-acetyl-piperazin-1-yl)-3-trifluoromethyl-phenyl]-amide], 1250 nM.
In turn, `CN1CCN(c2cccc(NC(=O)c3c(NCCc4ccccc4)cc[nH]c3=O)c2)CC1` [Example 4v, 2-Oxo-4-phenethylamino-1,2-dihydro-pyridine-3-carboxylic acid [3-(4-methyl-piperazin-1-yl)-phenyl]-amide] registered an IC50 of 500 to 15000 nM.
On to `O=C(Nc1cccc(N2CCCCC2)c1)c1c(NCCc2cccc(Cl)c2)cc[nH]c1=O` [Example 2n, 4-[2-(3-Chloro-phenyl)-ethylamino]-2-oxo-1,2-dihydro-pyridine-3-carboxylic acid (3-piperidin-1-yl-phenyl)-amide], for which the IC50 is 500 to 15000 nM.
As to `O=C(Nc1ccc(N2CCCC2)c(C(F)(F)F)c1)c1c(NCc2ccccn2)cc[nH]c1=O` [Example 2j, 2-Oxo-4-[(pyridin-2-ylmethyl)-amino]-1,2-dihydro-pyridine-3-carboxylic acid (4-pyrrolidin-1-yl-3-trifluoromethyl-phenyl)-amide], the IC50 was 500 to 15000 nM.
As for `CN1CCN(c2cccc(NC(=O)c3c(NCCc4c[nH]c5ccccc45)cc[nH]c3=O)c2)CC1` [Example 4ae, 4-[2-(1H-Indol-3-yl)-ethylamino]-2-ozo-1,2-dihydro-pyridine-3-carboxylic acid [3-(4-methyl-piperazin-1-yl)-phenyl]-amide], the IC50 was 500 to 15000 nM.
The compound `CC(=O)N1CCN(c2ccc(NC(=O)c3c(NCC(O)c4ccccc4)cc[nH]c3=O)cc2C(F)(F)F)CC1` (stereo not drawn) [Example 3, 4-(2-Hydroxy-2-phenyl-ethylamino)-2-oxo-1,2-dihydro-pyridine-3-carboxylic acid[4-(4-acetyl-piperazin-1-yl)-3-trifluoromethyl-phenyl]-amide] yielded an IC50 of 500 to 15000 nM.
Take `COc1ccc(NC(=O)c2c(NCC(C)c3ccccc3)cc[nH]c2=O)cc1N1CCN(C)CC1` (stereo not drawn) [Example 6j, 2-Oxo-4-(2-phenyl-propylamino)-1,2-dihydro-pyridine-3-carboxylic acid [4-methoxy-3-(4-methyl-piperazin-1-yl)-phenyl]-amide]: the IC50 fell in the range of 500 to 15000 nM.
Compound `COc1cccc(CCNc2cc[nH]c(=O)c2C(=O)Nc2cccc(N3CCN(C)CC3)c2)c1` [Example 4y, 4-[2-(3-Methoxy-phenyl)-ethylamino]-2-oxo-1,2-dihydro-pyridine-3-carboxylic acid [3-(4-methyl-piperazin-1-yl)-phenyl]-amide] displayed an IC50 of 500 to 15000 nM.
